{"source": "patent US20240252488A1", "about": "(KOREA RESEARCH INSTITUTE OF CHEMICAL TECHNOLOGY, priority 2020, published 2024)", "key": {"[1]": {"molecular_target": "T1, MLKL (Homo sapiens, UniProt Q8NB16)", "T1 sequence (Q8NB16 1-471)": "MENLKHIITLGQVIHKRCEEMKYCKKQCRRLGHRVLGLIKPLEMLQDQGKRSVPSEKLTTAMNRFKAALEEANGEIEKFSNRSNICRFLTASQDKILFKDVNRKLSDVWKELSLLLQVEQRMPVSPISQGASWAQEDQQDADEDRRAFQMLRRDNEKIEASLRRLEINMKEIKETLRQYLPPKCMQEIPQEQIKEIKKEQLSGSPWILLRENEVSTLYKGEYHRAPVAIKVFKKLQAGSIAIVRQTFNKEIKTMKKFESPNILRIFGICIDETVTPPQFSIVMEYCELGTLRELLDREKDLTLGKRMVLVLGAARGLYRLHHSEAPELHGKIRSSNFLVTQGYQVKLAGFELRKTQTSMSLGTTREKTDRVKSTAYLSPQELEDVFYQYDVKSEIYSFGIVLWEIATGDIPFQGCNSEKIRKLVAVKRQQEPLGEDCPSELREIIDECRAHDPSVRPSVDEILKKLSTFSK", "assay": "Measurement of binding affinity with MLKL receptor (competitive binding assay, Kd)", "parameters": "made in house; host or cells: HEK 293 cell line (T7 phage in E. coli BL21-derived host is also described)", "method": "Measurement of Binding Affinity with MLKL Receptor (Competitive Binding Assay)\nThe binding affinity was evaluated by measuring the Kd value in the following method.\nTo prepare kinase-tagged T7 phage strains in an E. coli host derived from the BL21 strain, E. coli were grown to log-phase and infected with T7 phage and incubated with shaking at 32° C. until lysis. The lysates were centrifuged and filtered to remove cell debris. For kinase production, it was expressed in human embryonic kidney cell line (HEK 293 cell line), and subsequently tagged with DNA for qPCR detection.\nThe liganded beads were blocked with excess biotin and washed with blocking buffer (SeaBlock (Pierce), 1% BSA, 0.05% Tween 20, 1 mM DTT) to remove unbound ligand and to reduce non-specific binding. […] Test compounds were prepared as 111× stocks in 100% DMSO.\nThe compounds were then diluted directly into the assays such that the final concentration of DMSO was 0.9%. All reactions performed in polypropylene 384-well plate. Each was a final volume of 0.02 ml. […] The kinase concentration in the eluates was measured by qPCR."}, "[2]": {"test_system": "FADD−/− Jurkat cells", "assay": "Necroptosis inhibition assay, TNF-α-induced necroptosis (CellTiter-Glo 2.0)", "format": "cell-based, human", "details": "TNF-α 15 ng/mL; for Necroptosis inhibition assay (Rescue %) 1 μM: compound 1 μM; for Necroptosis inhibition assay (Rescue %) 10 μM: compound 10 μM", "method": "Necroptosis Inhibition Assay\nNecroptosis inhibition was evaluated by the following method.\n80 μL of FADD gene-defective human T lymphocyte cells (FADD−/− Jurkat cells) were equally distributed into each well at 5.0×10^5 cells/mL in a white 96-well plate with a transparent bottom. 20 μL of the medium containing test compound was treated in each well so that the final concentration of the compound was 0.1, 1, and 10 μM, and reacted at room temperature for 30 minutes. After the 30-minute reaction was over, TNF (tumor necrosis factor)-α was treated in the corresponding well so that the final concentration of TNF-α was 15 ng/mL in order to induce necroptosis. It was cultured in a 5% CO2, 37° C. incubator for 20 to 24 hours.\nAfter incubation, the 96-well plate was left at room temperature for 30 minutes. After 30 minutes, Promega's CellTiter-Glo 2.0 reagent was diluted 1:3 with PBS and 100 μL of the diluted solution was added to each well to confirm cell viability by measuring the amount of ATP. After the treatment, the plate was shielded from light and incubated at room temperature for 2 minutes with orbital shaking, and then left at room temperature for 10 minutes without shaking. After measuring the luminescence at 0.5 seconds per well using a plate scanner, the cytotoxicity and necroptosis inhibition rate for the compound were calculated using the measured values."}}}
{"smiles": "Nc1ncc(-c2cnn(C3CCN(CCCCCCCCCCNC(=O)CNc4ccc5c(c4)C(=O)N(C4CCC(=O)NC4=O)C5=O)CC3)c2)nc1C(=O)O[C@@H](C(=O)Nc1ccc(F)cc1)c1ccccc1", "note": "(stereo partly drawn) [TDH-162, (R)-2-((4-fluorophenyl)amino)-2-oxo-1-phenylethyl 3-amino-6-(1-(1-(10-(2-((2-(2,6-dioxopiperidin-3-yl)-1,3-dioxoisoindolin-5-yl)amino)acetamido)decyl)piperidin-4-yl)-1H-pyrazol-4-yl)pyrazine-2-carboxylate]", "values": [{"measurement": "Kd", "setting": "[1]", "result": 11, "unit": "nM"}, {"measurement": "Necroptosis inhibition assay (Rescue %) 1 μM", "setting": "[2]", "result": 36.55, "unit": "%"}, {"measurement": "Necroptosis inhibition assay (Rescue %) 10 μM", "setting": "[2]", "result": 26.25, "unit": "%"}]}
{"smiles": "Nc1ncc(C2=CCN(C(=O)CCCCCNc3cccc4c3C(=O)N(C3CCC(=O)NC3=O)C4=O)CC2)cc1C(=O)O[C@@H](C(=O)Nc1ccc(F)cc1)c1ccccc1", "note": "(stereo partly drawn) [TDH-073, (R)-2-((4-fluorophenyl)amino)-2-oxo-1-phenylethyl 6-amino-1′-(6-((2-(2,6-dioxopiperidin-3-yl)-1,3-dioxoisoindolin-4-yl)amino)hexanoyl)-1′,2′,3′,6′-tetrahydro-[3,4′-bipyridine]-5-carboxylate]", "values": [{"measurement": "Kd", "setting": "[1]", "result": 210, "unit": "nM"}, {"measurement": "Necroptosis inhibition assay (Rescue %) 10 μM", "setting": "[2]", "result": 3.26, "unit": "%"}]}
{"smiles": "Nc1ncc(-c2cn(C3CCN(CC4CCN(C(=O)C5CCN(c6ccc7c(c6)C(=O)N(C6CCC(=O)NC6=O)C7=O)CC5)CC4)CC3)nn2)nc1C(=O)OC(C(=O)Nc1ccc(F)cc1)c1ccccc1", "note": "(centres unmarked) [TDH-221, 2-((4-fluorophenyl)amino)-2-oxo-1-phenylethyl 3-amino-6-(1-(1-((1-(1-(2-(2,6-dioxopiperidin-3-yl)-1,3-dioxoisoindolin-5-yl)piperidine-4-carbonyl)piperidin-4-yl)methyl)piperidin-4-yl)-1H-1,2,3-triazol-4-yl)pyrazine-2-carboxylate]", "values": [{"measurement": "Kd", "setting": "[1]", "result": 27, "unit": "nM"}, {"measurement": "Necroptosis inhibition assay (Rescue %) 1 μM", "setting": "[2]", "result": 53.65, "unit": "%"}, {"measurement": "Necroptosis inhibition assay (Rescue %) 10 μM", "setting": "[2]", "result": 54.23, "unit": "%"}]}
{"smiles": "Nc1ncc(-c2cnn(C3CCN(CCOCCOCCNc4ccc5c(c4)C(=O)N(C4CCC(=O)NC4=O)C5=O)CC3)c2)nc1C(=O)O[C@@H](C(=O)Nc1ccc(F)cc1)c1ccccc1", "note": "(stereo partly drawn) [TDH-122, (R)-2-((4-fluorophenyl)amino)-2-oxo-1-phenylethyl 3-amino-6-(1-(1-(2-(2-(2-((2-(2,6-dioxopiperidin-3-yl)-1,3-dioxoisoindolin-5-yl)amino)ethoxy)ethoxy)ethyl)piperidin-4-yl)-1H-pyrazol-4-yl)pyrazine-2-carboxylate]", "values": [{"measurement": "Kd", "setting": "[1]", "result": 1.8, "unit": "nM"}, {"measurement": "Necroptosis inhibition assay (Rescue %) 1 μM", "setting": "[2]", "result": 20.17, "unit": "%"}]}
{"smiles": "Nc1ncc(-c2cnn(C3CCN(CCOCCOCCNc4ccc5c(c4)C(=O)N(C4CCC(=O)NC4=O)C5=O)CC3)c2)nc1C(=O)N[C@@H](C(=O)Nc1ccc(F)cc1)c1ccccc1", "note": "(stereo partly drawn) [TDH-216, 3-amino-6-(1-(1-(2-(2-(2-((2-(2,6-dioxopiperidin-3-yl)-1,3-dioxoisoindolin-5-yl)amino)ethoxy)ethoxy)ethyl)piperidin-4-yl)-1H-pyrazol-4-yl)-N-((R)-2-((4-fluorophenyl)amino)-2-oxo-1-phenylethyl)pyrazine-2-carboxamide]", "values": [{"measurement": "Kd", "setting": "[1]", "result": 43, "unit": "nM"}, {"measurement": "Necroptosis inhibition assay (Rescue %) 1 μM", "setting": "[2]", "result": 21.7, "unit": "%"}, {"measurement": "Necroptosis inhibition assay (Rescue %) 10 μM", "setting": "[2]", "result": 38.63, "unit": "%"}]}
{"smiles": "Nc1ncc(-c2cnn(C3CCN(CCOCCOCCNc4cccc5c4C(=O)N(C4CCC(=O)NC4=O)C5=O)CC3)c2)nc1C(=O)O[C@@H](C(=O)Nc1ccc(F)cc1)c1ccccc1", "note": "(stereo partly drawn) [TDH-121, (R)-2-((4-fluorophenyl)amino)-2-oxo-1-phenylethyl 3-amino-6-(1-(1-(2-(2-(2-((2-(2,6-dioxopiperidin-3-yl)-1,3-dioxoisoindolin-4-yl)amino)ethoxy)ethoxy)ethyl)piperidin-4-yl)-1H-pyrazol-4-yl)pyrazine-2-carboxylate]", "values": [{"measurement": "Kd", "setting": "[1]", "result": 4.6, "unit": "nM"}, {"measurement": "Necroptosis inhibition assay (Rescue %) 1 μM", "setting": "[2]", "result": 2.96, "unit": "%"}]}
{"smiles": "Nc1ncc(-c2ccc(N3CCN(CC4CCN(C(=O)C5CCN(c6ccc7c(c6)C(=O)N(C6CCC(=O)NC6=O)C7=O)CC5)CC4)CC3)nc2)nc1C(=O)OC(C(=O)Nc1ccc(F)cc1)c1ccccc1", "note": "(centres unmarked) [TDH-231, 2-((4-fluorophenyl)amino)-2-oxo-1-phenylethyl 3-amino-6-(6-(4-((1-(1-(2-(2,6-dioxopiperidin-3-yl)-1,3-dioxoisoindolin-5-yl)piperidine-4-carbonyl)piperidin-4-yl)methyl)piperazin-1-yl)pyridin-3-yl)pyrazine-2-carboxylate]", "values": [{"measurement": "Kd", "setting": "[1]", "result": 140, "unit": "nM"}, {"measurement": "Necroptosis inhibition assay (Rescue %) 1 μM", "setting": "[2]", "result": 15.47, "unit": "%"}, {"measurement": "Necroptosis inhibition assay (Rescue %) 10 μM", "setting": "[2]", "result": 11.4, "unit": "%"}]}
{"smiles": "Nc1ncc(-c2cnn(C3CCN(CCOCCOCCNC(=O)C4CCN(c5ccc6c(c5)C(=O)N(C5CCC(=O)NC5=O)C6=O)CC4)CC3)c2)nc1C(=O)N[C@@H](C(=O)Nc1ccc(F)cc1)c1ccccc1", "note": "(stereo partly drawn) [TDH-214, 3-amino-6-(1-(1-(2-(2-(2-(1-(2-(2,6-dioxopiperidin-3-yl)-1,3-dioxoisoindolin-5-yl)piperidine-4-carboxamido)ethoxy)ethoxy)ethyl)piperidin-4-yl)-1H-pyrazol-4-yl)-N-((R)-2-((4-fluorophenyl)amino)-2-oxo-1-phenylethyl)pyrazine-2-carboxamide]", "values": [{"measurement": "Kd", "setting": "[1]", "result": 180, "unit": "nM"}, {"measurement": "Necroptosis inhibition assay (Rescue %) 1 μM", "setting": "[2]", "result": 26.74, "unit": "%"}, {"measurement": "Necroptosis inhibition assay (Rescue %) 10 μM", "setting": "[2]", "result": 48.41, "unit": "%"}]}
{"smiles": "Nc1ncc(-c2cnn(C3CCN(CCCCCCCCCCNc4ccc5c(c4)C(=O)N(C4CCC(=O)NC4=O)C5=O)CC3)c2)nc1C(=O)O[C@@H](C(=O)Nc1ccc(F)cc1)c1ccccc1", "note": "(stereo partly drawn) [TDH-160, (R)-2-((4-fluorophenyl)amino)-2-oxo-1-phenylethyl 3-amino-6-(1-(1-(10-((2-(2,6-dioxopiperidin-3-yl)-1,3-dioxoisoindolin-5-yl)amino)decyl)piperidin-4-yl)-1H-pyrazol-4-yl)pyrazine-2-carboxylate]", "values": [{"measurement": "Kd", "setting": "[1]", "result": 9.4, "unit": "nM"}, {"measurement": "Necroptosis inhibition assay (Rescue %) 1 μM", "setting": "[2]", "result": 3.59, "unit": "%"}]}
{"smiles": "Nc1ncc(-c2cnn(C3CCN(CCOCCOCCNC(=O)CNc4ccc5c(c4)C(=O)N(C4CCC(=O)NC4=O)C5=O)CC3)c2)nc1C(=O)N[C@@H](C(=O)Nc1ccc(F)cc1)c1ccccc1", "note": "(stereo partly drawn) [TDH-218, 3-amino-6-(1-(1-(2-(2-(2-(2-((2-(2,6-dioxopiperidin-3-yl)-1,3-dioxoisoindolin-5-yl)amino)acetamido)ethoxy)ethoxy)ethyl)piperidin-4-yl)-1H-pyrazol-4-yl)-N-((R)-2-((4-fluorophenyl)amino)-2-oxo-1-phenylethyl)pyrazine-2-carboxamide]", "values": [{"measurement": "Kd", "setting": "[1]", "result": 46, "unit": "nM"}, {"measurement": "Necroptosis inhibition assay (Rescue %) 1 μM", "setting": "[2]", "result": 27.92, "unit": "%"}, {"measurement": "Necroptosis inhibition assay (Rescue %) 10 μM", "setting": "[2]", "result": 40.68, "unit": "%"}]}
{"smiles": "Nc1ncc(-c2cnn(C3CCN(CCCCCCCCCCNC(=O)CNc4cccc5c4C(=O)N(C4CCC(=O)NC4=O)C5=O)CC3)c2)nc1C(=O)O[C@@H](C(=O)Nc1ccc(F)cc1)c1ccccc1", "note": "(stereo partly drawn) [TDH-161, (R)-2-((4-fluorophenyl)amino)-2-oxo-1-phenylethyl 3-amino-6-(1-(1-(10-(2-((2-(2,6-dioxopiperidin-3-yl)-1,3-dioxoisoindolin-4-yl)amino)acetamido)decyl)piperidin-4-yl)-1H-pyrazol-4-yl)pyrazine-2-carboxylate]", "values": [{"measurement": "Kd", "setting": "[1]", "result": 29, "unit": "nM"}, {"measurement": "Necroptosis inhibition assay (Rescue %) 1 μM", "setting": "[2]", "result": 25.81, "unit": "%"}, {"measurement": "Necroptosis inhibition assay (Rescue %) 10 μM", "setting": "[2]", "result": 35.81, "unit": "%"}]}
{"smiles": "Nc1ncc(-c2cnn(C3CCN(C(=O)CCCCCNC(=O)CNc4ccc5c(c4)C(=O)N(C4CCC(=O)NC4=O)C5=O)CC3)c2)nc1C(=O)O[C@@H](C(=O)Nc1ccc(F)cc1)c1ccccc1", "note": "(stereo partly drawn) [TDH-123, (R)-2-((4-fluorophenyl)amino)-2-oxo-1-phenylethyl 3-amino-6-(1-(1-(6-(2-((2-(2,6-dioxopiperidin-3-yl)-1,3-dioxoisoindolin-5-yl)amino)acetamido)hexanoyl)piperidin-4-yl)-1H-pyrazol-4-yl)pyrazine-2-carboxylate]", "values": [{"measurement": "Kd", "setting": "[1]", "result": 0.89, "unit": "nM"}, {"measurement": "Necroptosis inhibition assay (Rescue %) 1 μM", "setting": "[2]", "result": 8.69, "unit": "%"}, {"measurement": "Necroptosis inhibition assay (Rescue %) 10 μM", "setting": "[2]", "result": 8.92, "unit": "%"}]}
